Measurements published in US20190223443A1, “Methods to Increase Corn Growth” (Valent BioSciences LLC, priority 2015, published 2019).

Experiments:
Assay type in all cases: in vivo
Hybrid corn [1] = experiment: Final yield, field, Chabás, Santa Fe, Argentina (Example 1); conditions: untreated 8096
[2] = test system: Hybrid 1 and Hybrid 2 corn; experiment: Field study, sprayed at V4, plant height (Examples 5 and 9)
Method: This study was conducted and the data analyzed as described above in Example 3 with the following the exceptions. The plants were sprayed at the V4 stage and plant height was measured at seven and 13 days post treatment.
Another study was conducted and the data analyzed as described Example 8, above, with the following the exceptions. The plants were sprayed at the V4 stage and plant height was measured at seven and 13 days post treatment. Results of this study are found in Table 11, below, describing shoot height in centimeters.

Hybrid corn [3] = experiment: Vigor rating after foliar treatment at V2, field, Chabás, Santa Fe, Argentina (Example 1); conditions: 1 to 9 scale (untreated=5.0)
Method: Hybrid corn was grown under conventional tillage in Chabás, Santa Fe, Argentina. At V2 growth stage, GA3 or a combination of GA3 and ABA was applied as a foliar treatment. Vigor was rated on a 1 to 9 scale (untreated=5.0) following spray applications at the times specified in Table 1.

[4] = test system: Hybrid 1, Hybrid 2 and Hybrid 3 corn; experiment: Long Grove, Ill., sprayed at V4, distance of growing point relative to soil surface (Examples 6 and 10); conditions: for Distance of the growing point relative to the soil surface, 7 days post treatment / Distance of the growing point relative to the soil surface, 13 days post treatment / Distance of the growing point relative to the soil surface, 20 days post treatment / Distance of the growing point relative to the soil surface, 4 days post treatment: Table 7; for Distance of growing point relative to soil surface, 7 days post treatment / Distance of growing point relative to soil surface, 13 days post treatment / Distance of growing point relative to soil surface, 20 days post treatment / Distance of growing point relative to soil surface, 4 days post treatment: Table 12
Method: In this example, seeds of three varieties were sown at Long Grove, Ill. and were grown under similar conditions as in Examples 3 to 6. Three hybrid corn varieties were grown, Hybrid 1 and 2 as above, and Hybrid 3 which was another central corn belt variety requiring 111 days to maturity.
At the early V-stages, the growing point of the corn stem is below the soil surface and emerges from the soil when the plants are at V5 or later, depending on the variety. In spring, the soil is generally cooler than the air temperature. Therefore, there would be an advantage to getting the growing point above the soil surface to facilitate faster growth.
The plants were sprayed at the V4 growth stage. Plants were dug from the ground at days after spray. Stems of five plants per replicate, three replicates per treatment were split and the distance of the growing point relative to the soil surface was determined in mm.
Seeds of three varieties were sown at Long Grove, Ill. and were grown under similar conditions as in Example 8, above. Three hybrid corn varieties were grown, Hybrid 1 and 2 as described in Examples 8 and 9, above, and Hybrid 3 which was another central corn belt variety requiring 111 days to maturity. The plants were sprayed at the V4 growth stage. Plants were dug from the ground at days after spray. Stems of five plants per replicate, three replicates per treatment were split and the distance of the growing point relative to the soil surface was determined in mm. Results of this study are found in Table 12, below, describing distance of growing point relative to soil surface in millimeters.

[5] = test system: Hybrid 1 and Hybrid 2 corn; experiment: Field study Woodstock, Ill., sprayed at V2, shoot height (Examples 4 and 8); conditions: for Growth response to spray treatment (in words): sprayed at V2
Method: (§1) A field study was conducted at Woodstock, Ill. Seeds of two commercial varieties were sown: Hybrid 1 was northern corn belt variety with 100 days to maturity, while Hybrid 2 was a central corn belt variety with 111 days to maturity. Corn of these two varieties was sown into cool soil on May 7, 2014. Plants were sprayed at V2 with solutions containing a non-ionic surfactant (0.25%, v/v) at 15 gallons of spray solution/acre and growth was followed for 14 days. At seven days and 14 days after treatment shoot heights in centimeters were measured for 60 plants in each replicate.
as §1, with “GA3 refers to gibberellic acid” for “At seven days”, “ABA refers to abscisic acid. Results of the study are found in Table 10 below describing” for “14 days after treatment”, “height” for “heights”, “centimeters.” for “centimeters were measured for 60 plants in each replicate.”

Hybrid corn [6] = experiment: Corn trial under conventional tillage, Lozada, Argentina, sprayed at V3, yield at harvest (Example 3); conditions: for Yield difference from control treatment: difference of the Yield (kg/ha) column; for Yield: untreated 3840
Excerpt: In a corn trial under conventional tillage in Lozada, Argentina, hybrid corn was planted and sprayed at 16 days post-planting at the V3 growth stage.

corn hybrid B73 X Mo17 = experiment: Greenhouse study Long Grove, Ill., sprayed at V1-V2, change in height and synergy (Example 7)
Method: A greenhouse study was conducted at Long Grove, Ill. Seeds of the corn hybrid B73 X Mo17 was sown into potted soil on May 7, 2014. Plants were sprayed at 11 days post sowing (V1-V2) with solutions containing a non-ionic surfactant (0.25%, v/v) and growth was followed for 6 days. GA3 refers to gibberellic acid and ABA refers to abscisic acid. Results of the study described in 3. above can be seen in the following tables describing change in height in centimeters from day of treatment (Table 8) and change in height in centimeters from day of treatment compared to control (Table 9).
Synergy is calculated as follows: […]
Observed difference in height from control/Expected difference in height from control, where expected difference in height from control is the sum of the observed difference in height of each active ingredient applied alone. If the ratio between the experimentally observed efficacy of the mixture and the expected efficacy of the mixture is greater than 1, than synergistic interactions are present in the mixture.

[7] = GA3 16 g/ha, mixtures plus ABA as labelled
[8] = GA3 120 ppm, mixtures plus ABA 12 (10:1), 10 (12:1) or 8.6 ppm (14:1)

C=C1C[C@]23C[C@@]1(O)CC[C@H]2[C@@]12C=C[C@H](O)[C@@](C)(C(=O)O1)[C@H]2[C@@H]3C(=O)O [GA3, gibberellic acid]
Yield (Hybrid corn [1]; GA3 8 g/ha): 8355 kg/ha
Yield (Hybrid corn [1]; [7]): 8769 kg/ha
Plant height, 7 days post treatment ([2]; Hybrid 1, Table 6, control 0:0 76.50): 78.60 cm
Plant height, 13 days post treatment ([2]; Hybrid 1, Table 6, control 0:0 117.61): 116.44 cm
Shoot height, 7 days post treatment ([2]; Hybrid 1, Table 11, control 0:0 76.50): 78.60 cm
Shoot height, 13 days post treatment ([2]; Hybrid 1, Table 11, control 0:0 117.61): 116.44 cm
Plant height, 7 days post treatment ([2]; Hybrid 2, Table 6, control 0:0 63.76): 68.25 cm
Plant height, 13 days post treatment ([2]; Hybrid 2, Table 6, control 0:0 98.71): 102.40 cm
Shoot height, 7 days post treatment ([2]; Hybrid 2, Table 11, control 0:0 63.76): 68.25 cm
Shoot height, 13 days post treatment ([2]; Hybrid 2, Table 11, control 0:0 98.71): 102.40 cm
Vigor 3 d post-spraying (Hybrid corn [3]; GA3 8 g/ha): 5.2
Vigor 7 d post-spraying (Hybrid corn [3]; GA3 8 g/ha): 5.3
Vigor 15 d post-spraying (Hybrid corn [3]; GA3 8 g/ha): 5.5
Vigor 3 d post-spraying (Hybrid corn [3]; [7]): 5.5
Vigor 7 d post-spraying (Hybrid corn [3]; [7]): 5.6
Vigor 15 d post-spraying (Hybrid corn [3]; [7]): 6.0
Distance of the growing point relative to the soil surface, 7 days post treatment ([4]; Hybrid 1, control 0:0 17.47): 34.53 mm
Distance of the growing point relative to the soil surface, 13 days post treatment ([4]; Hybrid 1, control 0:0 166.40): 163.27 mm
Distance of the growing point relative to the soil surface, 20 days post treatment ([4]; Hybrid 1, control 0:0 644.00): 603.80 mm
Distance of the growing point relative to the soil surface, 4 days post treatment ([4]; Hybrid 1, control 0:0 −1.13): 4.20 mm
Distance of growing point relative to soil surface, 7 days post treatment ([4]; Hybrid 1, control 0:0 17.47): 34.53 mm
Distance of growing point relative to soil surface, 13 days post treatment ([4]; Hybrid 1, control 0:0 166.40): 163.27 mm
Distance of growing point relative to soil surface, 20 days post treatment ([4]; Hybrid 1, control 0:0 644.00): 603.80 mm
Distance of growing point relative to soil surface, 4 days post treatment ([4]; Hybrid 1, control 0:0 −1.13): 4.20 mm
Distance of the growing point relative to the soil surface, 4 days post treatment ([4]; Hybrid 2, control 0:0 0.80): 1.87 mm
Distance of the growing point relative to the soil surface, 7 days post treatment ([4]; Hybrid 2, control 0:0 18.80): 24.07 mm
Distance of the growing point relative to the soil surface, 13 days post treatment ([4]; Hybrid 2, control 0:0 128.87): 130.93 mm
Distance of the growing point relative to the soil surface, 20 days post treatment ([4]; Hybrid 2, control 0:0 517.13): 515.53 mm
Distance of growing point relative to soil surface, 4 days post treatment ([4]; Hybrid 2, control 0:0 0.80): 1.87 mm
Distance of growing point relative to soil surface, 7 days post treatment ([4]; Hybrid 2, control 0:0 18.80): 24.07 mm
Distance of growing point relative to soil surface, 13 days post treatment ([4]; Hybrid 2, control 0:0 128.87): 130.93 mm
Distance of growing point relative to soil surface, 20 days post treatment ([4]; Hybrid 2, control 0:0 517.13): 515.53 mm
Distance of the growing point relative to the soil surface, 4 days post treatment ([4]; Hybrid 3, control 0:0 0.53): 3.67 mm
Distance of the growing point relative to the soil surface, 7 days post treatment ([4]; Hybrid 3, control 0:0 25.60): 27.87 mm
Distance of the growing point relative to the soil surface, 13 days post treatment ([4]; Hybrid 3, control 0:0 147.73): 164.67 mm
Distance of the growing point relative to the soil surface, 20 days post treatment ([4]; Hybrid 3, control 0:0 619.33): 653.53 mm
Distance of growing point relative to soil surface, 4 days post treatment ([4]; Hybrid 3, control 0:0 0.53): 3.67 mm
Distance of growing point relative to soil surface, 7 days post treatment ([4]; Hybrid 3, control 0:0 25.60): 27.87 mm
Distance of growing point relative to soil surface, 13 days post treatment ([4]; Hybrid 3, control 0:0 147.73): 164.67 mm
Distance of growing point relative to soil surface, 20 days post treatment ([4]; Hybrid 3, control 0:0 619.33): 653.53 mm
Shoot height, 7 days post treatment ([5]; Hybrid 1, Table 5, control 0:0 37.75): 36.07 cm
Shoot height, 14 days post treatment ([5]; Hybrid 1, Table 5, control 0:0 57.90): 57.08 cm
Shoot height, 7 days post treatment ([5]; Hybrid 1, Table 10, control 0:0 37.75): 36.07 cm
Shoot height, 14 days post treatment ([5]; Hybrid 1, Table 10, control 0:0 57.90): 57.08 cm
Growth response to spray treatment (in words) ([5]; Hybrid 1): did not respond
Shoot height, 7 days post treatment ([5]; Hybrid 2, Table 5, control 0:0 29.56): 31.33 cm
Shoot height, 14 days post treatment ([5]; Hybrid 2, Table 5, control 0:0 50.16): 51.20 cm
Shoot height, 7 days post treatment ([5]; Hybrid 2, Table 10, control 0:0 29.56): 31.33 cm
Shoot height, 14 days post treatment ([5]; Hybrid 2, Table 10, control 0:0 50.16): 51.20 cm
Growth response to spray treatment (in words) ([5]; Hybrid 2): growth increased
Yield difference from control treatment (Hybrid corn [6]; GA3 8 g/ha): 370
Yield (Hybrid corn [6]; GA3 8 g/ha): 4210 kg/ha
Yield difference from control treatment (Hybrid corn [6]; [7]): 345
Yield (Hybrid corn [6]; [7]): 4185 kg/ha
Observed change in height from day of treatment compared to control, 2 days post treatment (corn hybrid B73 X Mo17; [8]): 3.13 cm
Observed change in height from day of treatment compared to control, 4 days post treatment (corn hybrid B73 X Mo17; [8]): 4.97 cm
Observed change in height from day of treatment compared to control, 6 days post treatment (corn hybrid B73 X Mo17; [8]): 7.21 cm
Change in height from day of treatment, 2 days post treatment (corn hybrid B73 X Mo17; GA3 120 ppm, mixtures plus ABA 12 (10:1), 10 (12:1) or 8.6 ppm (14:1), control 9.74): 12.87 cm
Change in height from day of treatment, 4 days post treatment (corn hybrid B73 X Mo17; GA3 120 ppm, mixtures plus ABA 12 (10:1), 10 (12:1) or 8.6 ppm (14:1), control 22.59): 27.56 cm
Change in height from day of treatment, 6 days post treatment (corn hybrid B73 X Mo17; GA3 120 ppm, mixtures plus ABA 12 (10:1), 10 (12:1) or 8.6 ppm (14:1), control 43.03): 50.24 cm
Height of the corn compared to the control (in words) (corn hybrid B73 X Mo17; applied alone, Tables 8 and 9): increased the height
